Assay results published in patent US12043599B2, “Herbicidal compounds” (SYNGENTA PARTICIPATIONS AG, priority 2018, dated 2024).

What was measured:
Type in all cases: in vivo
Settings in all cases: 250 g/h, evaluated after 13 days
[1] = test system: Alopecurus myosuroides (ALOMY); test: Pre-emergence herbicidal glasshouse test, percentage damage
Outline: (§1)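 Pot-grown grass weeds in standard soil were sprayed 1 day after sowing (pre-emergence) or after 8 days (post-emergence) with compound at 250 g/h in acetone/water (50:50) with 0.5% Tween 20. Glasshouse conditions were 24/16 °C day/night, 14 h light, 65% humidity. Damage was scored after 13 days on a five-point scale.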

[2] = test system: Avena fatua (AVEFA); test: as above
Outline: as §1

[3] = test system: Echinochloa crus-galli (ECHCG); test: as above
Outline: as §1

[4] = test system: Lolium perenne (LOLPE); test: as above
Outline: as §1

[5] = test system: Setaria faberi (SETFA); test: as above
Outline: as §1

[6] = test system: Setaria faberi (SETFA); test: Post-emergence herbicidal glasshouse test, percentage damage
Outline: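 Wheat, barley and Setaria faberi were sprayed post-emergence after 8 days' growth (24/16 °C, 14 h light, 65% humidity) with compound in acetone/water (50:50) containing 0.5% Tween 20, at the indicated rates. On wheat, compounds were also applied with cloquintocet-mexyl at 50 g/ha. Damage was scored after 13 days on a five-point scale (5=80-100% to 1=0-19%).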

[7] = test system: Alopecurus myosuroides (ALOMY); test: as above
Outline: as §1

[8] = test system: Avena fatua (AVEFA); test: as above
Outline: as §1

[9] = test system: Echinochloa crus-galli (ECHCG); test: as above
Outline: as §1

[10] = test system: Lolium perenne (LOLPE); test: as above
Outline: as §1

SMILES | ALOMY PRE percentage damage (five point scale) [1] | AVEFA PRE percentage damage (five point scale) [2] | ECHCG PRE percentage damage (five point scale) [3] | LOLPE PRE percentage damage (five point scale) [4] | SETFA PRE percentage damage (five point scale) [5] | SETFA POST percentage damage (five point scale) [6] | ALOMY POST percentage damage (five point scale) [7] | AVEFA POST percentage damage (five point scale) [8] | ECHCG POST percentage damage (five point scale) [9] | LOLPE POST percentage damage (five point scale) [10]
CC#Cc1cc(C)c(C2C(=O)CC3(CCN(C(=O)Cc4ncccn4)CC3)CC2=O)c(C)c1 [Compound A102] | 2 (2=20-39%) | 5 (5=80-100%) | 5 (5=80-100%) | 5 (5=80-100%) | 5 (5=80-100%) | 5 (5=80-100%) | 5 (5=80-100%) | 5 (5=80-100%) | 5 (5=80-100%) | 5 (5=80-100%)
CC#Cc1cc(C)c(C2C(=O)CC3(CCN(C(=O)CCC#N)CC3)CC2=O)c(C)c1 [Compound A198, 4-[9-(2,6-dimethyl-4-prop-1-ynyl-phenyl)-8,10-dioxo-3-azaspiro[5.5]undecan-3-yl]-4-oxo-butanenitrile] | 5 (5=80-100%) | 4 (4=60-79%) | 5 (5=80-100%) | 5 (5=80-100%) | 5 (5=80-100%) | 5 (5=80-100%) | 5 (5=80-100%) | 5 (5=80-100%) | 5 (5=80-100%) | 5 (5=80-100%)
C=CCOCC(=O)N1CCC2(CC1)CC(=O)C(c1c(C)cc(C#CC)cc1C)C(=O)C2 [Compound A201] | 5 (5=80-100%) | 4 (4=60-79%) | 5 (5=80-100%) | 5 (5=80-100%) | 5 (5=80-100%) | 5 (5=80-100%) | 5 (5=80-100%) | 5 (5=80-100%) | 5 (5=80-100%) | 5 (5=80-100%)
CC#Cc1cc(C)c(C2C(=O)CC3(CCN(C(=O)NC(C)C)CC3)CC2=O)c(C)c1 [Compound A152] | 5 (5=80-100%) | 5 (5=80-100%) | 5 (5=80-100%) | 5 (5=80-100%) | 5 (5=80-100%) | 5 (5=80-100%) | 5 (5=80-100%) | 5 (5=80-100%) | 5 (5=80-100%) | 5 (5=80-100%)
CC#Cc1cc(C)c(C2C(=O)CC3(CCN(C(=O)c4ncccn4)CC3)CC2=O)c(C)c1 [Compound A19] | 5 (5=80-100%) | 5 (5=80-100%) | 5 (5=80-100%) | 5 (5=80-100%) | 5 (5=80-100%) | 5 (5=80-100%) | 5 (5=80-100%) | 5 (5=80-100%) | 5 (5=80-100%) | 5 (5=80-100%)
CC#Cc1cc(C)c(C2C(=O)CC3(CCN(C(=O)[C@@H](C)O)CC3)CC2=O)c(C)c1 [Compound A156] | 5 (5=80-100%) | 5 (5=80-100%) | 5 (5=80-100%) | 5 (5=80-100%) | 5 (5=80-100%) | 5 (5=80-100%) | 5 (5=80-100%) | 5 (5=80-100%) | 5 (5=80-100%) | 5 (5=80-100%)
CC#Cc1cc(C)c(C2C(=O)CC3(CCN(C(=O)Cc4cccnc4)CC3)CC2=O)c(C)c1 [Compound A99] | 3 (3=40-59%) | 3 (3=40-59%) | 5 (5=80-100%) | 4 (4=60-79%) | 4 (4=60-79%) | 5 (5=80-100%) | 4 (4=60-79%) | 5 (5=80-100%) | 5 (5=80-100%) | 4 (4=60-79%)
CC#Cc1cc(C)c(C2C(=O)CC3(CCN(C(=O)COC(C)(C)C)CC3)CC2=O)c(C)c1 [Compound A185] | 5 (5=80-100%) | 4 (4=60-79%) | 5 (5=80-100%) | 5 (5=80-100%) | 5 (5=80-100%) | 5 (5=80-100%) | 5 (5=80-100%) | 5 (5=80-100%) | 5 (5=80-100%) | 5 (5=80-100%)
CC#Cc1cc(C)c(C2=C(OC(=O)OCCOC)CC3(CCN(C(=O)OCCOC)CC3)CC2=O)c(C)c1 [Compound P52] | 5 (5=80-100%) | 5 (5=80-100%) | 5 (5=80-100%) | 5 (5=80-100%) | 5 (5=80-100%) | 5 (5=80-100%) | 5 (5=80-100%) | 5 (5=80-100%) | 5 (5=80-100%) | 5 (5=80-100%)
CC#Cc1cc(C)c(C2C(=O)CC3(CCN(C(=O)COCCC)CC3)CC2=O)c(C)c1 [Compound A186] | 5 (5=80-100%) | 5 (5=80-100%) | 5 (5=80-100%) | 5 (5=80-100%) | 5 (5=80-100%) | 5 (5=80-100%) | 5 (5=80-100%) | 5 (5=80-100%) | 5 (5=80-100%) | 5 (5=80-100%)
CC#Cc1cc(C)c(C2C(=O)CC3(CCN(C(=O)CCc4ccn(C)n4)CC3)CC2=O)c(C)c1 [Compound A183] | 4 (4=60-79%) | 4 (4=60-79%) | 5 (5=80-100%) | 5 (5=80-100%) | 5 (5=80-100%) | 5 (5=80-100%) | 5 (5=80-100%) | 5 (5=80-100%) | 5 (5=80-100%) | 5 (5=80-100%)
